Data taken from patent US12364786B2, “Polymer particles” (Terumo Corporation, priority 2016, dated 2025).

Experiment: In vitro elution of pharmaceutical agents from particles (Sotax USP 4 dissolution apparatus, HPLC)
Assay type: physicochemical
Description: For in vitro elution testing, drug was loaded on 1 mL samples of microspheres of approximately 400±100 micron diameter. Microsphere aliquots were loaded with 37.5 mg of doxorubicin in water or 50 mg of irinotecan in citrate buffer. Samples were incubated for 18 hours. Drug was eluted from the samples in a Sotax USP 4 dissolution apparatus. Samples were taken at incremental time intervals and analyzed by high performance liquid chromatography. Peak area was recorded (FIG. 4). Percent and concentration of drug eluted were calculated for each time interval.

[1] = 1 mL microsphere sample (approximately 400±100 micron diameter) loaded with 37.5 mg doxorubicin in water
[2] = 1 mL microsphere sample (approximately 400±100 micron diameter) loaded with 50 mg irinotecan in citrate buffer

Row | Structure (SMILES) | amount of drug eluted over the first day [1] [mg] | percent of drug eluted over the first day [1] [%] | amount of drug eluted over the first day [2] | percent of drug eluted over the first day [2] [%]
1 | COc1cccc2c1C(=O)c1c(O)c3c(c(O)c1C2=O)C[C@@](O)(C(=O)CO)C[C@@H]3O[C@H]1C[C@H](N)[C@H](O)[C@H](C)O1 [doxorubicin] | 24.5 | 65 |  | 
2 | CCc1c2c(nc3ccc(OC(=O)N4CCC(N5CCCCC5)CC4)cc13)-c1cc3c(c(=O)n1C2)COC(=O)[C@]3(O)CC [irinotecan] |  |  | over 45 mg | 95
